Consider seven molecules from PMC2818883 (Inorganic chemistry, 2010).

Read-outs that look alike come from different tables or passages of the source.

One data set relates to HIV. The note with it: cited from earlier work.
The test system of data set [1] is HIV-1 (IIIB) and HIV-2 (ROD) strains. Type of data set: cell-based. Particulars: for IC50: read-out: IC50 values, text summary over HIV-1 (IIIB) and HIV-2 (ROD) strains.
In another data set the test system is MT-4 cells. The data set can be described thus: Cytotoxicity evaluation in uninfected MT-4 cells. The class given is cell-based.
Another data set has as its system HIV-2 (ROD). The data set can be described thus: Anti-HIV activity in MT-4 cell cultures, HIV-2. Type of data set: cell-based. The note with it: read-out: av. IC50, average, MT-4 cells.

`c1cc(CN2CCCNCCNCCCNCC2)ccc1CN1CCCNCCNCCCNCC1` [AMD3100, xylylbicyclam]: the concentration for half-maximal inhibition (IC50) – broadly, the concentration that gives 50% inhibition – in the data set on HIV (read-out: IC50 against HIV, entry inhibitor drug against HIV) is below 0.1 µM.
In the case of Pd(II)-cyclam, in the data set on HIV, the “anti-HIV activity of metal cyclams in words” value is “inactive”.
For the molecule Co(III)-cyclam, the “anti-HIV activity of metal cyclams in words” value with HIV was “inactive”.
For “oxovanadium(IV)-cyclam sulfate [Complex 1]”, in data set [1], the “antiviral (anti-HIV) activity in words” value was “inactive” and the IC50 was above 340 µM.
As for `[Cl-].[Cl-].[Cl-].[Cl-].[O]=[V+2].[O]=[V+2].c1cc(CN2CCCNCCNCCCNCC2)ccc1CN1CCCNCCNCCCNCC1` [Complex 4, oxovanadium(IV)-(xylylbicyclam) tetrachloride], the CC50 (commonly the concentration giving 50% cytotoxicity) with MT-4 cells (read-out: av. CC50, average, uninfected MT-4 cells) is above 161 µM. Besides, the CC50 in the data set on MT-4 cells (single determinations, reduces viability of uninfected MT-4 cells by 50%) is above 161 µM. Moreover, in data set [1], the “antiviral (anti-HIV) activity in words” value is “highly active” and the IC50 lay in the range of 0.1 to 0.3 µM.
For the molecule `O=S(=O)([O-])[O-].O=S(=O)([O-])[O-].[O]=[V+2].[O]=[V+2].c1cc(CN2CCCNCCNCCCNCC2)ccc1CN1CCCNCCNCCCNCC1` [Complex 3, oxovanadium(IV)-(xylylbicyclam) disulfate], the CC50 with MT-4 cells is above 151 µM. The 50% inhibitory concentration (IC50) in the data set with HIV-2 (ROD) was 3.3 µM; in data set [1] it was 1 to 5 µM. Moreover, the “antiviral (anti-HIV) activity in words” value in data set [1] was “highly active”.
With “oxovanadium(IV)-cyclam dichloride [Complex 2]”, in data set [1], the “antiviral (anti-HIV) activity in words” value is “inactive” and the concentration for half-maximal inhibition (IC50) is above 360 µM.
